Assay results as given in ChEMBL document CHEMBL5226286, “The application of isatin-based multicomponent-reactions in the quest for new bioactive and druglike molecules” (Eur J Med Chem, 2021).
In brackets after ≈: the same amount, converted by molar mass.

Columns and labels:
Leishmania major = assay: Antileishmanial activity against Leishmania major promastigotes incubated for 72 hrs by micrscopic analysis; type: functional
HeLa = assay: Anticancer activity against human HeLa cells measured after 48 hrs by MTT assay; type: functional, cell-based
NIH3T3 = assay: Anticancer activity against mouse 3T3 cells measured after 48 hrs by MTT assay; type: functional, cell-based; settings: NIH3T3, 48 h

MIC (Leishmania major): 6.8 µM (≈ 3.84 µg/mL) | IC50 (HeLa): 4.8 µM
Compound: O=C1/C(=C/c2cccc([N+](=O)[O-])c2)CCC[C@]12[C@H]1CCCN1[C@]1(C(=O)Nc3ccccc31)[C@H]2c1cccc([N+](=O)[O-])c1
IC50 (NIH3T3): 19.1 µM
